Assay results as given in ChEMBL document CHEMBL5303573, “Mapping human microbiome drug metabolism by gut bacteria and their genes” (Nature, 2019).

How the values were obtained:
[1] = The drug is tested on Bifidobacterium breve strain: DSM20213 for biotransformation. The drug concentrations were measured before and after a 12-h incubation by liquid-chromatography-coupled mass spectrometry (LC–MS); conditions: 2 µM
[2] = The drug is tested on Bifidobacterium longum subsp. Infantis strain: CCUG52486 for biotransformation. The drug concentrations were measured before and after a 12-h incubation by liquid-chromatography-coupled mass spectrometry (LC–MS); conditions: 2 µM
[3] = The drug is tested on Collinsella aerofaciens strain: ATCC25986 for biotransformation. The drug concentrations were measured before and after a 12-h incubation by liquid-chromatography-coupled mass spectrometry (LC–MS); conditions: 2 µM
[4] = The drug is tested on Bacteroides coprophilus strain: DSM18228 for biotransformation. The drug concentrations were measured before and after a 12-h incubation by liquid-chromatography-coupled mass spectrometry (LC–MS); conditions: 2 µM
[5] = The drug is tested on Bacteroides fragilis strain: HMW615 for biotransformation. The drug concentrations were measured before and after a 12-h incubation by liquid-chromatography-coupled mass spectrometry (LC–MS); conditions: 2 µM
[6] = The drug is tested on Bacteroides ovatus strain: ATCC8483 for biotransformation. The drug concentrations were measured before and after a 12-h incubation by liquid-chromatography-coupled mass spectrometry (LC–MS); conditions: 2 µM
[7] = The drug is tested on Bacteroides sp. WH2 strain: WH2 for biotransformation. The drug concentrations were measured before and after a 12-h incubation by liquid-chromatography-coupled mass spectrometry (LC–MS); conditions: bacteroides sp. wh2, 12 h, 2 µM
[8] = The drug is tested on Bacteroides xylanisolvens strain: DSM18836 for biotransformation. The drug concentrations were measured before and after a 12-h incubation by liquid-chromatography-coupled mass spectrometry (LC–MS); conditions: 2 µM
[9] = The drug is tested on Clostridium ramosum strain: DSM1402 for biotransformation. The drug concentrations were measured before and after a 12-h incubation by liquid-chromatography-coupled mass spectrometry (LC–MS); conditions: thomasclavelia ramosa, 2 µM
[10] = The drug is tested on Enterococcus faecalis strain: V583 for biotransformation. The drug concentrations were measured before and after a 12-h incubation by liquid-chromatography-coupled mass spectrometry (LC–MS); conditions: 2 µM
[11] = The drug is tested on Eubacterium hallii strain: DSM3353 for biotransformation. The drug concentrations were measured before and after a 12-h incubation by liquid-chromatography-coupled mass spectrometry (LC–MS); conditions: anaerobutyricum hallii, 2 µM
[12] = The drug is tested on Eubacterium rectale strain: ATCC33656 for biotransformation. The drug concentrations were measured before and after a 12-h incubation by liquid-chromatography-coupled mass spectrometry (LC–MS); conditions: agathobacter rectalis, 2 µM
[13] = The drug is tested on Eubacterium ventriosum strain: ATCC27560 for biotransformation. The drug concentrations were measured before and after a 12-h incubation by liquid-chromatography-coupled mass spectrometry (LC–MS); type: ADME; set-up: dose 2 uM, timepoint 0 vs 12 hours; conditions: 2 µM
[14] = The drug is tested on Ruminococcus torques strain: ATCC27756 for biotransformation. The drug concentrations were measured before and after a 12-h incubation by liquid-chromatography-coupled mass spectrometry (LC–MS); type: ADME; set-up: dose 2 uM, timepoint 0 vs 12 hours; conditions: 2 µM
[15] = The drug is tested on Escherichia coli strain: BW25113 for biotransformation. The drug concentrations were measured before and after a 12-h incubation by liquid-chromatography-coupled mass spectrometry (LC–MS); conditions: 2 µM
[16] = The drug is tested on Providencia stuartii strain: ATCC25827 for biotransformation. The drug concentrations were measured before and after a 12-h incubation by liquid-chromatography-coupled mass spectrometry (LC–MS); conditions: 2 µM
[17] = bifidobacterium adolescentis, 12 h, 2 µM
Description: The drug is tested on Bifidobacterium adolescentis strain: ATCC 15703 for biotransformation. The drug concentrations were measured before and after a 12-h incubation by liquid-chromatography-coupled mass spectrometry (LC–MS)

[18] = parabacteroides johnsonii, 12 h, 2 µM
Description: The drug is tested on Parabacteroides johnsonii strain: DSM18315 for biotransformation. The drug concentrations were measured before and after a 12-h incubation by liquid-chromatography-coupled mass spectrometry (LC–MS)

[19] = enterocloster bolteae, 12 h, 2 µM
Description: The drug is tested on Clostridium bolteae strain: ATCCBAA-613 for biotransformation. The drug concentrations were measured before and after a 12-h incubation by liquid-chromatography-coupled mass spectrometry (LC–MS)

[20] = victivallis vadensis, 12 h, 2 µM
Description: The drug is tested on Victivallis vadensis strain: ATCC BAA-548 for biotransformation. The drug concentrations were measured before and after a 12-h incubation by liquid-chromatography-coupled mass spectrometry (LC–MS)

Row | SMILES | Bacterial Biotransformation [1] | Bacterial Biotransformation [2] | Bacterial Biotransformation [3] | Bacterial Biotransformation [4] | Bacterial Biotransformation [5] | Bacterial Biotransformation [6] | Bacterial Biotransformation [7] | Bacterial Biotransformation [8] | Bacterial Biotransformation [9] | Bacterial Biotransformation [10] | Bacterial Biotransformation [11] | Bacterial Biotransformation [12] | Bacterial Biotransformation [13] | Bacterial Biotransformation [14] | Bacterial Biotransformation [15] | Bacterial Biotransformation [16] | Bacterial Biotransformation [17] | Bacterial Biotransformation [18] | Bacterial Biotransformation [19] | Bacterial Biotransformation [20]
1 | CCN(CC)C(=O)/C(C#N)=C/c1cc(O)c(O)c([N+](=O)[O-])c1 [ENTACAPONE] | Compound metabolized | Compound metabolized | Compound metabolized | Compound metabolized | Compound metabolized | Compound metabolized | Compound metabolized | Compound metabolized | Compound metabolized | Compound metabolized | Compound metabolized | Compound metabolized | Compound metabolized | Compound metabolized | Compound metabolized | Compound metabolized | Compound metabolized | Compound metabolized | Compound metabolized | Compound metabolized
2 | CCOc1ccc2nc(S(N)(=O)=O)sc2c1 [ETHOXZOLAMIDE] | Compound metabolized | Compound metabolized | Compound metabolized | Compound metabolized | Compound NOT metabolized | Compound metabolized | Compound metabolized | Compound metabolized | Compound metabolized | Compound metabolized | Compound metabolized | Compound metabolized | Compound metabolized | Compound metabolized | Compound metabolized | Compound metabolized | Compound metabolized | Compound metabolized | Compound metabolized | Compound metabolized
3 | CC(Oc1c(Cl)cccc1Cl)C1=NCCN1 (stereo not given) [LOFEXIDINE] | Compound metabolized | Compound metabolized | Compound metabolized | Compound metabolized | Compound NOT metabolized | Compound NOT metabolized | Compound metabolized | Compound NOT metabolized | Compound metabolized | Compound NOT metabolized | Compound metabolized | Compound metabolized | Compound NOT metabolized | Compound metabolized | Compound metabolized | Compound metabolized | Compound metabolized | Compound metabolized | Compound metabolized | Compound metabolized
4 | CC[C@@H](CO)NC(=O)[C@@H]1C=C2c3cccc4c3c(cn4C)C[C@H]2N(C)C1.O=C(O)/C=C\C(=O)O [METHYSERGIDE MALEATE] | Compound metabolized | Compound metabolized | Compound metabolized | Compound metabolized | Compound NOT metabolized | Compound metabolized | Compound metabolized | Compound metabolized | Compound metabolized | Compound metabolized | Compound metabolized | Compound metabolized | Compound metabolized | Compound metabolized | Compound metabolized | Compound metabolized | Compound metabolized | Compound metabolized | Compound metabolized | Compound metabolized
5 | COc1c(C)c2c(c(O)c1C/C=C(\C)CCC(=O)OCCN1CCOCC1)C(=O)OC2 [MYCOPHENOLATE MOFETIL] | Compound metabolized | Compound metabolized | Compound metabolized | Compound metabolized | Compound metabolized | Compound metabolized | Compound metabolized | Compound metabolized | Compound metabolized | Compound metabolized | Compound metabolized | Compound metabolized | Compound metabolized | Compound metabolized | Compound metabolized | Compound metabolized | Compound metabolized | Compound metabolized | Compound metabolized | Compound metabolized
6 | COc1ccc2[nH]c([S+]([O-])Cc3ncc(C)c(OC)c3C)nc2c1 (stereo not given) [OMEPRAZOLE] | Compound metabolized | Compound metabolized | Compound metabolized | Compound metabolized | Compound metabolized | Compound metabolized | Compound metabolized | Compound metabolized | Compound metabolized | Compound metabolized | Compound metabolized | Compound metabolized | Compound metabolized | Compound metabolized | Compound metabolized | Compound metabolized | Compound metabolized | Compound metabolized | Compound metabolized | Compound metabolized
